Literature values, collected in patent publication US9662309B2, “Anti-demodicosis agent” (BAYER INTELLECTUAL PROPERTY GMBH, priority 2004, dated 2017).

System: demodicosis
Conditions: spot-on treatment 3 times weekly

Question: Which effectiveness against demodicosis does the source give for 22,23-dihydroavermectin B1 [ivermectin] here?
Answer: The effectiveness against demodicosis was “insufficiently effective”.
